Experimental data from patent US11986471B2, “Compounds and methods of use” (Tango Therapeutics, Inc., priority 2018, dated 2024).

What was measured:
[1] = tested on: HAP1 MTAP-intact; assay: SDMA in-cell western assay, HAP1 MTAP-intact cell line; format: cell-based; details: Homo sapiens
Outline: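 Cells from two matched HAP1 lines, MTAP-null and MTAP-expressing at endogenous levels, are treated with compound. SDMA is then quantified by in-cell western and an IC50 is calculated for each line.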

[2] = tested on: HAP1 MTAP-deleted; assay: SDMA in-cell western assay, HAP1 MTAP-deleted cell line; format: cell-based; details: for IC50: Homo sapiens, HAP1 MTAP-deleted cell line; for MTAP Intact/Deleted Ratio: IC50 ratio HAP1 MTAP-intact / HAP1 MTAP-deleted
Outline: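 MTAP-null HAP1 cells, the deleted member of an isogenic pair with endogenously MTAP-expressing HAP1, are treated with compound. SDMA is then quantified by in-cell western and an IC50 is calculated.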

[3] = target: T1, PRMT5 (Homo sapiens, UniProt O14744); assay: PRMT5 IC50 assay with no cofactor; format: biochemical; details: read-out: No Co-factor IC50
T1 construct: purchased Viva (custom protein)
Outline: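 For the SAM-containing format, dividing IC50 by 1.5 yields Ki; for the MTA-containing format the divisor is 13.5. A third format without cofactor gives IC50 alone.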

[4] = target: T1, PRMT5; assay: PRMT5 IC50 assay in the presence of MTA as cofactor; format: biochemical; details: for IC50: PRMT5, MTA as cofactor; for SAM/MTA Ratio: ratio between Ki in the presence of SAM and Ki in the presence of MTA
Outline: (§1)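 Each compound is tested on PRMT5 in the presence of SAM, of MTA, and without any cofactor. Ki values are then back-calculated using fixed factors of 1.5 (SAM) and 13.5 (MTA), and the two Ki values are compared as a ratio.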

[5] = target: T1, PRMT5; assay: PRMT5 IC50 assay in the presence of SAM as cofactor; format: biochemical
Outline: as §1

T1 sequence (O14744 whole entry): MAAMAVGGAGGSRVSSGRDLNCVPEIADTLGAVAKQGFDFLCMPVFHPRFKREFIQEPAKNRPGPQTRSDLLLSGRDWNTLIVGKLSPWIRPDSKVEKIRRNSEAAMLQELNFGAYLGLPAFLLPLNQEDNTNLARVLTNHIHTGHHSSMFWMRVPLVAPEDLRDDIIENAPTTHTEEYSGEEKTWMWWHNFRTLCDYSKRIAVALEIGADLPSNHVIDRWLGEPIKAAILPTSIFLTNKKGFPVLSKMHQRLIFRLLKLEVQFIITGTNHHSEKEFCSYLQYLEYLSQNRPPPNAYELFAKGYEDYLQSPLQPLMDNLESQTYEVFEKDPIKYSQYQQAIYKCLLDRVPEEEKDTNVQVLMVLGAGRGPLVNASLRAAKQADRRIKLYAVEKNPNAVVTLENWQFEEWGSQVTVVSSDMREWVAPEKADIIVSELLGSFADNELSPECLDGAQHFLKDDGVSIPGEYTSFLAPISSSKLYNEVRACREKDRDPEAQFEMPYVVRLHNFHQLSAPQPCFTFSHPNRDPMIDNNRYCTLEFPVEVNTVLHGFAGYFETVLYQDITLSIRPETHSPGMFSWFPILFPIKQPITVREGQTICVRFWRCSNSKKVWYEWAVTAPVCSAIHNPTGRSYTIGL
T1 sequence (Q9BQA1 whole entry partner): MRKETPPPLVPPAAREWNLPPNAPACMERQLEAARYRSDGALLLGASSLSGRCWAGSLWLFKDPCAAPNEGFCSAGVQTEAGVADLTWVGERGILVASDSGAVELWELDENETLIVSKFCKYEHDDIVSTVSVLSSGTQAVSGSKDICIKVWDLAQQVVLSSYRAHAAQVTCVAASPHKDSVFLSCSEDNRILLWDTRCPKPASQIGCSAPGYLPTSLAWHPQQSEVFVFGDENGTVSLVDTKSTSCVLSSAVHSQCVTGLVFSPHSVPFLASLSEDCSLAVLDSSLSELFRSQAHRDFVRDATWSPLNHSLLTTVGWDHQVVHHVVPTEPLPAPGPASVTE

IC50 [1] | IC50 [2] | IC50 [3] | IC50 [4] | IC50 [5] | SMILES | MTAP Intact/Deleted Ratio [2] | SAM/MTA Ratio [4]
≥ 10000 nM | 1000 to 10000 nM | ≥ 5000 nM | 50 to 500 nM | 50 to 500 nM | Cc1ncoc1COc1ccc2c(c1C)CCN(C[C@@H](O)CNC(=O)c1ccnc(NC3CCC3)c1)C2 [Compound 272, (S)-2-(cyclobutylamino)-N-(2-hydroxy-3-[5-methyl-6-((4-methyloxazol-5-yl)methoxy)-3N-dihydroisoquinolin-2(1H)-yl)propyl)isonicotinamide] | C* (an IC50 ratio of less than 3 fold between the IC50 in the HAP1 MTAP-intact cell line and the HAP1 MTAP-deleted cell line) | A (a Ki ratio greater than or equal to 10 fold between the Ki in the presence of SAM and the Ki in the presence of MTA)
≥ 10000 nM | 1000 to 10000 nM | ≥ 5000 nM | 500 to 5000 nM | 500 to 5000 nM | Cc1c(OCc2cnn[nH]2)ccc2c1CCN(C[C@@H](O)CNC(=O)c1ccnc(NC3CCC3)c1)C2 [Compound 273, (S)—N-(3-(6-((1H-1,2,3-triazol-5-yl)methoxy)-5-methyl-3,4-dihydroisoquinolin-2(1H)-yl)-2-hydroxypropyl)-2-(cyclobutylamino)isonicotinamide] | C* (an IC50 ratio of less than 3 fold between the IC50 in the HAP1 MTAP-intact cell line and the HAP1 MTAP-deleted cell line) | –
≥ 10000 nM | 1000 to 10000 nM | ≥ 5000 nM | 50 to 500 nM | 50 to 500 nM | CC(=O)N1CCC(Nc2cc(C(=O)NC[C@H](O)CN3CCc4c(ccc(OCc5ocnc5C)c4C)C3)ncn2)CC1 [Compound 274, (S)-6-((1-acetylpiperidin-4-yl)amino)-N-(2-hydroxy-3-(5-methyl-6-((4-methyloxazol-5-yl)methoxy)-3,4-dihydroisoquinolin-2(1H)-yl)propyl)pyrimidine-4-carboxamide] | C* (an IC50 ratio of less than 3 fold between the IC50 in the HAP1 MTAP-intact cell line and the HAP1 MTAP-deleted cell line) | A (a Ki ratio greater than or equal to 10 fold between the Ki in the presence of SAM and the Ki in the presence of MTA)
≥ 10000 nM | ≥ 10000 nM | ≥ 5000 nM | 500 to 5000 nM | 500 to 5000 nM | Cn1nccc1COc1ccc2c(c1Cl)CCN(C[C@@H](O)CNC(=O)c1ccnc(NC3CCCC3)c1)C2 [Compound 275, (S)—N-(3-(5-chloro-6-((1-methyl-1H-pyrazol-5-yl)methoxy)-3,4-dihydroisoquinolin-2(1H)-yl)-2-hydroxypropyl)-2-(cyclopentylamino)isonicotinamide] | C* (an IC50 ratio of less than 3 fold between the IC50 in the HAP1 MTAP-intact cell line and the HAP1 MTAP-deleted cell line) | A (a Ki ratio greater than or equal to 10 fold between the Ki in the presence of SAM and the Ki in the presence of MTA)
≥ 10000 nM | ≥ 10000 nM | ≥ 5000 nM | 500 to 5000 nM | 500 to 5000 nM | Cc1c(OCc2ccnn2C)ccc2c1CCN(C[C@@H](O)CNC(=O)c1ccnc(NC3CCCC3)c1)C2 [Compound 277, (S)-2-(cyclopentylamino)-N-(2-hydroxy-3-(5-methyl-6-((1-methyl-1H-pyrazol-5-yl)methoxy)-3N-dihydroisoquinolin-2(1H)-yl)propyl)isonicotinamide] | C* (an IC50 ratio of less than 3 fold between the IC50 in the HAP1 MTAP-intact cell line and the HAP1 MTAP-deleted cell line) | A (a Ki ratio greater than or equal to 10 fold between the Ki in the presence of SAM and the Ki in the presence of MTA)
≥ 10000 nM | ≥ 10000 nM | ≥ 5000 nM | 500 to 5000 nM | 500 to 5000 nM | Cc1c(OCc2ccnn2C)ccc2c1CCN(C[C@@H](O)CNC(=O)c1ccnc(NC3CCCCC3)c1)C2 [Compound 278, (S)-2-(cyclohexylamino)-N-(2-hydroxy-3-(5-methyl-6-((1-methyl-1H-pyrazol-5-yl)methoxy)-3N-dihydroisoquinolin-2(1H)-yl)propyl)isonicotinamide] | C* (an IC50 ratio of less than 3 fold between the IC50 in the HAP1 MTAP-intact cell line and the HAP1 MTAP-deleted cell line) | A (a Ki ratio greater than or equal to 10 fold between the Ki in the presence of SAM and the Ki in the presence of MTA)
≥ 10000 nM | 1000 to 10000 nM | ≥ 5000 nM | 50 to 500 nM | 50 to 500 nM | O=C(NC[C@H](O)CN1CCc2c(Cl)c(OCc3cnco3)cc(F)c2C1)c1ccnc(NC2CCC2)c1 [Compound 279, N-[(2S)-3-[5-chloro-8-fluoro-6-(oxazol-5-ylmethoxy)-3,4-dihydro-1H-isoquinolin-2-yl]-2-hydroxy-propyl]-2-(cyclobutylamino)pyridine-4-carboxamide] | C* (an IC50 ratio of less than 3 fold between the IC50 in the HAP1 MTAP-intact cell line and the HAP1 MTAP-deleted cell line) | A (a Ki ratio greater than or equal to 10 fold between the Ki in the presence of SAM and the Ki in the presence of MTA)
< 1000 nM | < 1000 nM | ≥ 5000 nM | 500 to 5000 nM | 50 to 500 nM | O=C(NC[C@H](O)CN1CCc2c(ccc(OCc3cn[nH]c3)c2Cl)C1)c1ccnc(NC2CCC2)c1 [Compound 280, N-[(2S)-3-[5-chloro-6-(1H-pyrazol-4-ylmethoxy)-3,4-dihydro-1H-isoquinolin-2-yl]-2-hydroxy-propyl]-2-(cyclobutylamino)pyridine-4-carboxamide] | C* (an IC50 ratio of less than 3 fold between the IC50 in the HAP1 MTAP-intact cell line and the HAP1 MTAP-deleted cell line) | –
≥ 10000 nM | 1000 to 10000 nM | ≥ 5000 nM | 50 to 500 nM | 500 to 5000 nM | O=C(NC[C@H](O)CN1CCc2cc(OCc3cnco3)c(Cl)cc2C1)c1ccnc(NC2CCC2)c1 [Compound 281, N-[(2S)-3-[7-chloro-6-(oxazol-5-ylmethoxy)-3,4-dihydro-1H-isoquinolin-2-yl]-2-hydroxy-propyl]-2-(cyclobutylamino)pyridine-4-carboxamide] | C* (an IC50 ratio of less than 3 fold between the IC50 in the HAP1 MTAP-intact cell line and the HAP1 MTAP-deleted cell line) | A (a Ki ratio greater than or equal to 10 fold between the Ki in the presence of SAM and the Ki in the presence of MTA)
≥ 10000 nM | ≥ 10000 nM | ≥ 5000 nM | 500 to 5000 nM | 500 to 5000 nM | Cn1nccc1COc1cc(F)c2c(c1Cl)CCN(C[C@@H](O)CNC(=O)c1ccnc(NC3CCC3)c1)C2 [Compound 282, N-[(2S)-3-[5-chloro-8-fluoro-6-[(2-methylpyrazol-3-yl)methoxy]-3,4-dihydro-1H-isoquinolin-2-yl]-2-hydroxy-propyl]-2-(cyclobutylamino)pyridine-4-carboxamide] | C* (an IC50 ratio of less than 3 fold between the IC50 in the HAP1 MTAP-intact cell line and the HAP1 MTAP-deleted cell line) | A (a Ki ratio greater than or equal to 10 fold between the Ki in the presence of SAM and the Ki in the presence of MTA)
< 1000 nM | < 1000 nM | ≥ 5000 nM | 500 to 5000 nM | 500 to 5000 nM | Cc1ncoc1COc1ccc2c(c1)CCN(C[C@@H](O)CNC(=O)c1cccc(NC3CCC3)c1)C2 [Compound 283, (S)-3-(cyclobutylamino)-N-(2-hydroxy-3-(6-((4-methyloxazol-5-yl)methoxy)-3,4-dihydroisoquinolin-2(1H)-yl)propyl)benzamide] | C* (an IC50 ratio of less than 3 fold between the IC50 in the HAP1 MTAP-intact cell line and the HAP1 MTAP-deleted cell line) | A (a Ki ratio greater than or equal to 10 fold between the Ki in the presence of SAM and the Ki in the presence of MTA)
< 1000 nM | < 1000 nM | ≥ 5000 nM | 50 to 500 nM | 500 to 5000 nM | O=C(NC[C@H](O)CN1CCc2cc(OCc3cnco3)ccc2C1)c1cc(NC2CCC2)ncc1Cl [Compound 284, 5-chloro-2-(cyclobutylamino)-N-[(2S)-2-hydroxy-3-[6-(oxazol-5-ylmethoxy)-3N-dihydro-1H-isoquinolin-2-yl]propyl]pyridine-4-carboxamide] | C* (an IC50 ratio of less than 3 fold between the IC50 in the HAP1 MTAP-intact cell line and the HAP1 MTAP-deleted cell line) | A (a Ki ratio greater than or equal to 10 fold between the Ki in the presence of SAM and the Ki in the presence of MTA)
≥ 10000 nM | 1000 to 10000 nM | 500 to 5000 nM | 50 to 500 nM | 50 to 500 nM | CN1CCN(c2nc(NC3COC3)cc(C(=O)NC[C@H](O)CN3CCc4c(ccc(OCc5cnco5)c4Cl)C3)n2)CC1 [Compound 285, (S)—N-(3-(5-chloro-6-(oxazol-5-ylmethoxy)-3,4-dihydroisoquinolin-2(1H)-yl)-2-hydroxypropyl)-2-(4-methylpiperazin-1-yl)-6-(oxetan-3-ylamino)pyrimidine-4-carboxamide] | C* (an IC50 ratio of less than 3 fold between the IC50 in the HAP1 MTAP-intact cell line and the HAP1 MTAP-deleted cell line) | A (a Ki ratio greater than or equal to 10 fold between the Ki in the presence of SAM and the Ki in the presence of MTA)
